Converted amounts (≈) assume the structure as drawn. Read-outs that look alike come from different tables or passages of the source.
Columns and labels:
M. suipneumoniae HK(2) = assay: MIC against mycoplasma in vitro; assay type: cell-based
[1] = test system: M. suipneumoniae PW/C/210; assay: MIC against mycoplasma in vitro; assay type: cell-based; conditions: Mesomycoplasma hyopneumoniae, 144 h
M. suipneumoniae LABER = assay: MIC against mycoplasma in vitro; assay type: cell-based
M. suipneumoniae UCD 1 = assay: MIC against mycoplasma in vitro; assay type: cell-based
[2] = test system: M. suipneumoniae NCTC 10110; assay: MIC against mycoplasma in vitro; assay type: cell-based
M. hyorhinis ATCC 23234 = assay: MIC against mycoplasma in vitro; assay type: cell-based
M. bovis NCTC 10131 = assay: microbe, parasite or virus in culture; assay type: cell-based
M. gallisepticum S6 = assay: MIC against mycoplasma in vitro; assay type: cell-based
M. pneumoniae ATCC 15492 = assay: MIC against mycoplasma in vitro; assay type: cell-based
E. coli NCTC 10418 [3] = assay: MIC against human bacteria in vitro; assay type: cell-based; conditions: E. coli NCTC 10418, agar with 5% chocolated horse blood, 18 hours, 37° C.
E. coli NCTC 10418 [4] = assay: MIC against veterinary bacteria in vitro
Method: (§1) The activity of the compounds of the Examples against various veterinarily important bacteria, was assayed in vitro using two-fold serial dilutions in Diagnostic Sensitivity Test Agar inoculated with 10^4 organisms.

E. coli E1 = assay: MIC against veterinary bacteria in vitro
Method: as §1

S. typhimurium S18 = assay: MIC against veterinary bacteria in vitro
Method: as §1

Bord. bronchiseptica B08 = assay: MIC against veterinary bacteria in vitro
Method: as §1

Bord. bronchiseptica B09 = assay: MIC against veterinary bacteria in vitro
Method: as §1

Past. haemolytica PA5 = assay: MIC against veterinary bacteria in vitro
Method: as §1

[5] = test system: Erysipelothrix rhusiopathiae NCTC 8163; assay: MIC against veterinary bacteria in vitro
Method: as §1

[6] = test system: Staph. aureus 152 (pen. sens); assay: MIC against veterinary bacteria in vitro
Method: as §1

Staph. aureus Oxford = assay: MIC against veterinary bacteria in vitro
Method: as §1

Strep. dysgalactiae SPD1 = assay: MIC against veterinary bacteria in vitro
Method: as §1

Strep. pneumoniae CN33 = assay: MIC against human bacteria in vitro; assay type: cell-based; conditions: Strep. pneumoniae CN33, 5% chocolated horse blood agar, 18 hours
Past. multocida PA2 = assay: MIC against veterinary bacteria in vitro
Method: as §1

[7] = Mesomycoplasma hyopneumoniae, 144 h
[8] = Mesomycoplasma hyopneumoniae, NCTC10110, 144 h, M. suipneumoniae NCTC 10110, 6 days, 37° C., read-out: MIC
[9] = Mesomycoplasma hyorhinis, ATCC23234, 144 h
[10] = Mycoplasmoides gallisepticum, 144 h, M. gallisepticum S6, 6 days, 37° C., read-out: MIC
[11] = Mycoplasmoides pneumoniae, ATCC15492, 144 h
[12] = Escherichia coli, NCTC10418, read-out: MIC
[13] = Escherichia coli, NCTC10418, 18 h
[14] = Salmonella enterica, TYPHIMURIUM, 18 h
[15] = Bordetella bronchiseptica, B08, 18 h
[16] = Bordetella bronchiseptica, B09, 18 h
[17] = Mannheimia haemolytica, PA5, 18 h
[18] = Erysipelothrix rhusiopathiae, NCTC8163, 18 h
[19] = Streptococcus dysgalactiae, SPD1, 18 h
[20] = Mesomycoplasma hyopneumoniae, UCD1, 144 h, M. suipneumoniae UCD 1, 6 days, 37° C., read-out: MIC
[21] = Streptococcus pneumoniae, read-out: MIC
[22] = Pasteurella multocida, PA2, 18 h

Work on `C/C(=C\c1ncc(CCCCCCCCO)o1)C[C@@H]1OC[C@H](C[C@@H]2O[C@H]2[C@@H](C)[C@H](C)O)[C@@H](O)[C@H]1O` [Example 19, 5-(8-Hydroxyoctyl)-2-(1-normon-2-yl) oxazole A] yielded an MIC (M. suipneumoniae HK(2); [7]) of 2.5 µg/mL (≈ 5.04 µM), an MIC [1] of 0.25 µg/mL (≈ 0.504 µM) and an MIC (M. suipneumoniae LABER; [7]) of 1 µg/mL (≈ 2.02 µM). It also gave an MIC (M. suipneumoniae UCD 1; Mesomycoplasma hyopneumoniae, UCD1, 144 h) of 2.5 µg/mL (≈ 5.04 µM), an MIC [2, 8] of 5 µg/mL (≈ 10.1 µM) and an MIC (M. hyorhinis ATCC 23234; [9]) of 1 µg/mL (≈ 2.02 µM). The MIC (M. bovis NCTC 10131; NCTC10131, 144 h) was 0.025 µg/mL (≈ 0.0504 µM), the MIC (M. gallisepticum S6; [10]) was 10 µg/mL (≈ 20.2 µM) and the MIC (M. pneumoniae ATCC 15492; [11]) was 1 µg/mL (≈ 2.02 µM). It also gave an MIC (E. coli NCTC 10418 [3]; [12]) greater than 128 µg/mL, an MIC (E. coli NCTC 10418 [4]; [13]) greater than 80 µg/mL and an MIC (E. coli E1; Escherichia coli, E1, 18 h) greater than 80 µg/mL. The MIC (S. typhimurium S18; [14]) was greater than 80 µg/mL, the MIC (Bord. bronchiseptica B08; [15]) was greater than 80 µg/mL and the MIC (Bord. bronchiseptica B09; [16]) was 20 µg/mL (≈ 40.4 µM). It also gave an MIC (Past. haemolytica PA5; [17]) greater than 80 µg/mL, an MIC [5, 18] greater than 80 µg/mL and an MIC ([6]; Staphylococcus aureus, 18 h) of 1.25 µg/mL (≈ 2.52 µM). For the same molecule, the MIC (Staph. aureus Oxford; Staphylococcus aureus, 18 h) was 2.5 µg/mL (≈ 5.04 µM) and the MIC (Strep. dysgalactiae SPD1; [19]) was 2.5 µg/mL (≈ 5.04 µM).

`CC(=Cc1cc(C)no1)CC1OCC(CC2OC2C(C)C(C)O)C(O)C1O` (stereo not drawn) [Example 30, 3-Methyl-5-(1-normon-2-yl) isoxazole A] showed an MIC (M. suipneumoniae HK(2); M. suipneumoniae HK(2), 6 days, 37° C.) of 2.5 µg/mL (≈ 6.55 µM), an MIC (M. suipneumoniae LABER; M. suipneumoniae LABER, 6 days, 37° C.) of 2.5 µg/mL (≈ 6.55 µM) and an MIC (M. suipneumoniae UCD 1; M. suipneumoniae UCD 1, 6 days, 37° C.) of 2.5 µg/mL (≈ 6.55 µM). It also gave an MIC ([2]; M. suipneumoniae NCTC 10110, 6 days, 37° C.) of 2.5 µg/mL (≈ 6.55 µM), an MIC (M. hyorhinis ATCC 23234; M. hyorhinis ATCC 23234, 6 days, 37° C.) of 0.5 µg/mL (≈ 1.31 µM) and an MIC (M. bovis NCTC 10131; M. bovis NCTC 10131, 6 days, 37° C.) of 0.25 µg/mL (≈ 0.655 µM). For the same molecule, the MIC (M. gallisepticum S6; M. gallisepticum S6, 6 days, 37° C.) was greater than 10 µg/mL, the MIC (M. pneumoniae ATCC 15492; M. pneumoniae ATCC 15492, 6 days, 37° C.) was 10 µg/mL (≈ 26.2 µM) and the MIC (E. coli NCTC 10418 [3]) was greater than 128 µg/mL. The MIC (Strep. pneumoniae CN33) was 128 µg/mL (≈ 336 µM), the MIC (E. coli NCTC 10418 [4]; E. coli NCTC 10418, Diagnostic Sensitivity Test Agar, 18 hours, 37° C.) was greater than 80 µg/mL and the MIC (E. coli E1; E. coli E1, Diagnostic Sensitivity Test Agar, 18 hours, 37° C.) was greater than 80 µg/mL. For the same molecule, the MIC (S. typhimurium S18; S. typhimurium S18, Diagnostic Sensitivity Test Agar, 18 hours) was greater than 80 µg/mL, the MIC (Bord. bronchiseptica B08; Bord. bronchiseptica B08, Diagnostic Sensitivity Test Agar, 18 hours) was greater than 80 µg/mL and the MIC (Bord. bronchiseptica B09; Bord. bronchiseptica B09, Diagnostic Sensitivity Test Agar, 18 hours) was greater than 80 µg/mL. It also gave an MIC (Past. multocida PA2; Past. multocida PA2, Diagnostic Sensitivity Test Agar, 18 hours) of 0.312 µg/mL (≈ 0.818 µM), an MIC (Past. haemolytica PA5; Past. haemolytica PA5, Diagnostic Sensitivity Test Agar, 18 hours) of 10 µg/mL (≈ 26.2 µM) and an MIC ([5]; Erysipelothrix rhusiopathiae NCTC 8163, Diagnostic Sensitivity Test Agar, 18 hours) greater than 80 µg/mL. The MIC ([6]; Staph. aureus 152 (pen. sens), Diagnostic Sensitivity Test Agar, 18 hours) was 2.5 µg/mL (≈ 6.55 µM), the MIC (Staph. aureus Oxford; Staph. aureus Oxford, Diagnostic Sensitivity Test Agar, 18 hours) was 2.5 µg/mL (≈ 6.55 µM) and the MIC (Strep. dysgalactiae SPD1; Strep. dysgalactiae SPD1, Diagnostic Sensitivity Test Agar, 18 hours) was 40 µg/mL (≈ 105 µM).

In the case of `C/C(=C\c1ncc(-c2ccc(C(=O)O)cc2)o1)C[C@@H]1OC[C@H](C[C@@H]2O[C@H]2[C@@H](C)[C@H](C)O)[C@@H](O)[C@H]1O` [Example 17, Sodium 4-[2-(1-normon-2-yl)-5-oxazolyl] benzoate A], the MIC (M. suipneumoniae HK(2); Mesomycoplasma hyopneumoniae, 144 h, M. suipneumoniae HK(2), 6 days, 37° C., read-out: MIC) is reported as 10 µg/mL, the MIC (M. suipneumoniae LABER; [7]) is reported as 2.5 µg/mL and the MIC (M. suipneumoniae UCD 1; [20]) is reported as 5 µg/mL. The MIC [2, 8] was greater than 10 µg/mL, the MIC (M. hyorhinis ATCC 23234; Mesomycoplasma hyorhinis, ATCC23234, 144 h, M. hyorhinis ATCC 23234, 6 days, 37° C., read-out: MIC) was 5 µg/mL and the MIC (M. bovis NCTC 10131; NCTC10131, 144 h) was 2.5 µg/mL. For the same molecule, the MIC (M. gallisepticum S6; [10]) was greater than 10 µg/mL, the MIC (M. pneumoniae ATCC 15492; Mycoplasmoides pneumoniae, ATCC15492, 144 h, M. pneumoniae ATCC 15492, 6 days, 37° C., read-out: MIC) was greater than 10 µg/mL and the MIC (E. coli NCTC 10418 [3]; [12]) was greater than 64 µg/mL. It also gave an MIC (Strep. pneumoniae CN33; [21]) of 64 µg/mL, an MIC (E. coli NCTC 10418 [4]; [13]) greater than 80 µg/mL and an MIC (E. coli E1; Escherichia coli, E1, 18 h) greater than 80 µg/mL. It also gave an MIC (S. typhimurium S18; [14]) greater than 80 µg/mL, an MIC (Bord. bronchiseptica B08; [15]) greater than 80 µg/mL and an MIC (Bord. bronchiseptica B09; [16]) of 40 µg/mL. For the same molecule, the MIC (Past. multocida PA2; [22]) was 1.25 µg/mL, the MIC (Past. haemolytica PA5; [17]) was greater than 80 µg/mL and the MIC [5, 18] was 80 µg/mL. The MIC ([6]; Staphylococcus aureus, 18 h) was 10 µg/mL, the MIC (Staph. aureus Oxford; Staphylococcus aureus, 18 h) was 20 µg/mL and the MIC (Strep. dysgalactiae SPD1; [19]) was 2.5 µg/mL.

With `C/C(=C\c1ncc(-c2ccc(Br)cc2)o1)C[C@@H]1OC[C@H](C[C@@H]2O[C@H]2[C@@H](C)[C@H](C)O)[C@@H](O)[C@H]1O` [Example 18, 5-p-Bromophenyl-2-(1-normon-2-yl) oxazole A] the MIC (M. suipneumoniae HK(2); [7]) was 1 µg/mL (≈ 1.91 µM), the MIC [1] was 0.25 µg/mL (≈ 0.479 µM) and the MIC (M. suipneumoniae LABER; [7]) was 0.25 µg/mL (≈ 0.479 µM). The MIC (M. suipneumoniae UCD 1; [20]) was 0.5 µg/mL (≈ 0.957 µM), the MIC ([2]; Mesomycoplasma hyopneumoniae, NCTC10110, 144 h) was 1 µg/mL (≈ 1.91 µM) and the MIC (M. hyorhinis ATCC 23234; [9]) was 0.25 µg/mL (≈ 0.479 µM). The MIC (M. bovis NCTC 10131; NCTC10131, 144 h) was 0.05 µg/mL (≈ 0.0957 µM), the MIC (M. gallisepticum S6; Mycoplasmoides gallisepticum, S6, 144 h) was 1 µg/mL (≈ 1.91 µM) and the MIC (M. pneumoniae ATCC 15492; [11]) was 1 µg/mL (≈ 1.91 µM). For the same molecule, the MIC (E. coli NCTC 10418 [3]; [12]) was greater than 128 µg/mL, the MIC (Strep. pneumoniae CN33; [21]) was 4 µg/mL (≈ 7.66 µM) and the MIC (E. coli NCTC 10418 [4]; [13]) was greater than 80 µg/mL. The MIC (E. coli E1; Escherichia coli, E1, 18 h) was greater than 80 µg/mL, the MIC (S. typhimurium S18; [14]) was greater than 80 µg/mL and the MIC (Bord. bronchiseptica B08; [15]) was 40 µg/mL (≈ 76.6 µM). It also gave an MIC (Bord. bronchiseptica B09; [16]) of 10 µg/mL (≈ 19.1 µM), an MIC (Past. multocida PA2; [22]) of 1.25 µg/mL (≈ 2.39 µM) and an MIC (Past. haemolytica PA5; [17]) of 40 µg/mL (≈ 76.6 µM). For the same molecule, the MIC [5, 18] was 40 µg/mL (≈ 76.6 µM), the MIC ([6]; Staphylococcus aureus, 18 h) was 0.312 µg/mL (≈ 0.597 µM) and the MIC (Staph. aureus Oxford; Staphylococcus aureus, 18 h) was 0.625 µg/mL (≈ 1.2 µM). For the same molecule, the MIC (Strep. dysgalactiae SPD1; [19]) was 0.156 µg/mL (≈ 0.299 µM).
